Laboratory results taken from ChEMBL document CHEMBL4177646, “Discovery of novel nitroimidazole enols as Pseudomonas aeruginosa DNA cleavage agents” (Bioorg Med Chem, 2017).
Values after ≈ are worked out from the molar mass of the structure shown.

Tests used:
Format in all cases: functional
[1] = system: Staphylococcus aureus; assay: Antibacterial activity against methicillin-resistant Staphylococcus aureus N315 after 24 hrs by micro broth dilution method; details: N315, 24 h
[2] = system: Staphylococcus aureus; assay: Antibacterial activity against drug-resistant Staphylococcus aureus after 24 hrs by micro broth dilution method
[3] = system: Staphylococcus aureus; assay: Antibacterial activity against Staphylococcus aureus ATCC 25923 after 24 hrs by micro broth dilution method; details: ATCC 25923, 24 h
[4] = system: Staphylococcus aureus; assay: Antibacterial activity against Staphylococcus aureus ATCC 29213 after 24 hrs by micro broth dilution method; details: ATCC 29213, 24 h
[5] = system: Escherichia coli; assay: Antibacterial activity against drug-resistant Escherichia coli after 24 hrs by micro broth dilution method
[6] = system: Escherichia coli; assay: Antibacterial activity against Escherichia coli ATCC 25922 after 24 hrs by micro broth dilution method; details: ATCC 25922, 24 h
[7] = system: Pseudomonas aeruginosa; assay: Antibacterial activity against drug-resistant Pseudomonas aeruginosa after 24 hrs by micro broth dilution method
[8] = system: Pseudomonas aeruginosa; assay: Antibacterial activity against Pseudomonas aeruginosa ATCC 27853 after 24 hrs by micro broth dilution method; details: ATCC 27853, 24 h
[9] = system: Candida albicans; assay: Antifungal activity against drug-resistant Candida albicans after 24 hrs by micro broth dilution method
[10] = system: Candida albicans; assay: Antifungal activity against Candida albicans ATCC 90023 after 24 hrs by micro broth dilution method; details: ATCC 90023, 24 h
[11] = system: Candida tropicalis; assay: Antifungal activity against Candida tropicalis after 24 hrs by micro broth dilution method
[12] = system: Pseudomonas aeruginosa; assay: Potency index, ratio of norfloxacin MIC to compound MIC for Pseudomonas aeruginosa ATCC 27853
[13] = system: Pseudomonas aeruginosa; assay: Potency index, ratio of metronidazole MIC to compound MIC for Pseudomonas aeruginosa ATCC 27853

Structure (SMILES): CC(=O)/C(=C\c1ccc(C)cc1)n1c([N+](=O)[O-])cnc1C
- MIC [1]: 1790 µM (≈ 511 µg/mL)
- MIC [2]: 220 µM (≈ 62.8 µg/mL)
- MIC [3]: 900 µM (≈ 257 µg/mL)
- MIC [4]: 450 µM (≈ 128 µg/mL)
- MIC [5]: 900 µM (≈ 257 µg/mL)
- MIC [6]: 56 µM (≈ 16 µg/mL)
- MIC [7]: 1790 µM (≈ 511 µg/mL)
- MIC [8]: 450 µM (≈ 128 µg/mL)
- MIC [9]: 512 µg/mL (≈ 1790 µM)
- MIC [10]: 256 µg/mL (≈ 897 µM)
- MIC [11]: 256 µg/mL (≈ 897 µM)
- Ratio [12]: 4 - 16

Structure (SMILES): Cc1ncc([N+](=O)[O-])n1/C(=C/c1ccc(F)cc1)C(C)O (stereo not given)
- MIC [1]: 1760 µM (≈ 513 µg/mL)
- MIC [2]: 1710 µM (≈ 498 µg/mL)
- MIC [3]: 880 µM (≈ 256 µg/mL)
- MIC [4]: 1710 µM (≈ 498 µg/mL)
- MIC [5]: 1710 µM (≈ 498 µg/mL)
- MIC [6]: 440 µM (≈ 128 µg/mL)
- MIC [7]: 880 µM (≈ 256 µg/mL)
- MIC [8]: 110 µM (≈ 32 µg/mL)
- MIC [9]: 512 µg/mL (≈ 1760 µM)
- MIC [10]: 64 µg/mL (≈ 220 µM)
- MIC [11]: 128 µg/mL (≈ 439 µM)
- Ratio [12]: 4 - 16

Structure (SMILES): Cc1ncc([N+](=O)[O-])n1/C(=C/c1c[nH]c2ccccc12)C(C)O (stereo not given)
- MIC [1]: 810 µM (≈ 253 µg/mL)
- MIC [2]: 1630 µM (≈ 509 µg/mL)
- MIC [3]: 410 µM (≈ 128 µg/mL)
- MIC [4]: 810 µM (≈ 253 µg/mL)
- MIC [5]: 810 µM (≈ 253 µg/mL)
- MIC [6]: 410 µM (≈ 128 µg/mL)
- MIC [7]: 810 µM (≈ 253 µg/mL)
- MIC [8]: 410 µM (≈ 128 µg/mL)
- MIC [9]: 512 µg/mL (≈ 1640 µM)
- MIC [10]: 128 µg/mL (≈ 410 µM)
- MIC [11]: 256 µg/mL (≈ 820 µM)
- Ratio [12]: 4 - 16

Structure (SMILES): Cc1ncc([N+](=O)[O-])n1/C(=C/c1ccccc1)C(C)O (stereo not given)
- MIC [1]: 1870 µM (≈ 511 µg/mL)
- MIC [2]: 1870 µM (≈ 511 µg/mL)
- MIC [3]: 1870 µM (≈ 511 µg/mL)
- MIC [4]: 1870 µM (≈ 511 µg/mL)
- MIC [5]: 1870 µM (≈ 511 µg/mL)
- MIC [6]: 1870 µM (≈ 511 µg/mL)
- MIC [7]: 940 µM (≈ 257 µg/mL)
- MIC [8]: 230 µM (≈ 62.9 µg/mL)
- MIC [9]: 512 µg/mL (≈ 1870 µM)
- MIC [10]: 16 µg/mL (≈ 58.5 µM)
- MIC [11]: 128 µg/mL (≈ 468 µM)
- Ratio [12]: 4 - 16

Structure (SMILES): CC(=O)/C(=C\c1ccc(F)cc1)n1c([N+](=O)[O-])cnc1C
- MIC [1]: 1760 µM (≈ 509 µg/mL)
- MIC [2]: 1760 µM (≈ 509 µg/mL)
- MIC [3]: 880 µM (≈ 255 µg/mL)
- MIC [4]: 1760 µM (≈ 509 µg/mL)
- MIC [5]: 1760 µM (≈ 509 µg/mL)
- MIC [6]: 110 µM (≈ 31.8 µg/mL)
- MIC [7]: 880 µM (≈ 255 µg/mL)
- MIC [8]: 440 µM (≈ 127 µg/mL)
- MIC [9]: 256 µg/mL (≈ 885 µM)
- MIC [10]: 128 µg/mL (≈ 442 µM)
- MIC [11]: 256 µg/mL (≈ 885 µM)
- Ratio [12]: 4 - 16

Structure (SMILES): Cc1ccc(/C=C(\C(C)O)n2c([N+](=O)[O-])cnc2C)cc1 (stereo not given)
- MIC [1]: 1780 µM (≈ 511 µg/mL)
- MIC [2]: 1780 µM (≈ 511 µg/mL)
- MIC [3]: 890 µM (≈ 256 µg/mL)
- MIC [4]: 1780 µM (≈ 511 µg/mL)
- MIC [5]: 1780 µM (≈ 511 µg/mL)
- MIC [6]: 440 µM (≈ 126 µg/mL)
- MIC [7]: 890 µM (≈ 256 µg/mL)
- MIC [8]: 440 µM (≈ 126 µg/mL)
- MIC [9]: 512 µg/mL (≈ 1780 µM)
- MIC [10]: 64 µg/mL (≈ 223 µM)
- MIC [11]: 128 µg/mL (≈ 445 µM)
- Ratio [12]: 4
- Ratio [13]: 7

Structure (SMILES): CC(=O)/C(=C\c1ccc(N(C)C)cc1)n1c([N+](=O)[O-])cnc1C
- MIC [1]: 1620 µM (≈ 509 µg/mL)
- MIC [2]: 1620 µM (≈ 509 µg/mL)
- MIC [3]: 1620 µM (≈ 509 µg/mL)
- MIC [4]: 410 µM (≈ 129 µg/mL)
- MIC [5]: 810 µM (≈ 255 µg/mL)
- MIC [6]: 810 µM (≈ 255 µg/mL)
- MIC [7]: 1620 µM (≈ 509 µg/mL)
- MIC [8]: 410 µM (≈ 129 µg/mL)
- MIC [9]: 512 µg/mL (≈ 1630 µM)
- MIC [10]: 128 µg/mL (≈ 407 µM)
- MIC [11]: 256 µg/mL (≈ 814 µM)
- Ratio [12]: 4 - 16

Structure (SMILES): CC(=O)/C(=C\c1ccccc1)n1c([N+](=O)[O-])cnc1C
- MIC [1]: 1880 µM (≈ 510 µg/mL)
- MIC [2]: 940 µM (≈ 255 µg/mL)
- MIC [3]: 470 µM (≈ 127 µg/mL)
- MIC [4]: 940 µM (≈ 255 µg/mL)
- MIC [5]: 940 µM (≈ 255 µg/mL)
- MIC [6]: 230 µM (≈ 62.4 µg/mL)
- MIC [7]: 470 µM (≈ 127 µg/mL)
- MIC [8]: 470 µM (≈ 127 µg/mL)
- MIC [9]: 256 µg/mL (≈ 944 µM)
- MIC [10]: 32 µg/mL (≈ 118 µM)
- MIC [11]: 128 µg/mL (≈ 472 µM)
- Ratio [12]: 4 - 16

Structure (SMILES): COc1cc(/C=C(\C(C)=O)n2c([N+](=O)[O-])cnc2C)ccc1O
- MIC [1]: 1600 µM (≈ 508 µg/mL)
- MIC [2]: 1600 µM (≈ 508 µg/mL)
- MIC [3]: 400 µM (≈ 127 µg/mL)
- MIC [4]: 1600 µM (≈ 508 µg/mL)
- MIC [5]: 800 µM (≈ 254 µg/mL)
- MIC [6]: 100 µM (≈ 31.7 µg/mL)
- MIC [7]: 800 µM (≈ 254 µg/mL)
- MIC [8]: 400 µM (≈ 127 µg/mL)
- MIC [9]: 256 µg/mL (≈ 807 µM)
- MIC [10]: 128 µg/mL (≈ 403 µM)
- MIC [11]: 256 µg/mL (≈ 807 µM)
- Ratio [12]: 4 - 16

Structure (SMILES): CCn1c2ccccc2c2cc(/C=C(\C(C)O)n3c([N+](=O)[O-])cnc3C)ccc21 (stereo not given)
- MIC [1]: 1310 µM (≈ 511 µg/mL)
- MIC [2]: 1310 µM (≈ 511 µg/mL)
- MIC [3]: 1310 µM (≈ 511 µg/mL)
- MIC [4]: 660 µM (≈ 258 µg/mL)
- MIC [5]: 1310 µM (≈ 511 µg/mL)
- MIC [6]: 1310 µM (≈ 511 µg/mL)
- MIC [7]: 1310 µM (≈ 511 µg/mL)
- MIC [8]: 1310 µM (≈ 511 µg/mL)
- MIC [9]: 512 µg/mL (≈ 1310 µM)
- MIC [10]: 512 µg/mL (≈ 1310 µM)
- MIC [11]: 256 µg/mL (≈ 656 µM)

Structure (SMILES): Cc1ncc([N+](=O)[O-])n1/C(=C/c1ccc(Cl)cc1Cl)C(C)O (stereo not given)
- MIC [1]: 1500 µM (≈ 513 µg/mL)
- MIC [2]: 1500 µM (≈ 513 µg/mL)
- MIC [3]: 1500 µM (≈ 513 µg/mL)
- MIC [4]: 1500 µM (≈ 513 µg/mL)
- MIC [5]: 1500 µM (≈ 513 µg/mL)
- MIC [6]: 1500 µM (≈ 513 µg/mL)
- MIC [7]: 1500 µM (≈ 513 µg/mL)
- MIC [8]: 750 µM (≈ 257 µg/mL)
- MIC [9]: 512 µg/mL (≈ 1500 µM)
- MIC [10]: 64 µg/mL (≈ 187 µM)
- MIC [11]: 256 µg/mL (≈ 748 µM)

Structure (SMILES): CCn1c2ccccc2c2cc(/C=C(\C(C)=O)n3c([N+](=O)[O-])cnc3C)ccc21
- MIC [1]: 1640 µM (≈ 637 µg/mL)
- MIC [2]: 820 µM (≈ 319 µg/mL)
- MIC [3]: 820 µM (≈ 319 µg/mL)
- MIC [4]: 1640 µM (≈ 637 µg/mL)
- MIC [5]: 1640 µM (≈ 637 µg/mL)
- MIC [6]: 1640 µM (≈ 637 µg/mL)
- MIC [7]: 1640 µM (≈ 637 µg/mL)
- MIC [8]: 1640 µM (≈ 637 µg/mL)
- MIC [9]: 512 µg/mL (≈ 1320 µM)
- MIC [10]: 256 µg/mL (≈ 659 µM)
- MIC [11]: 256 µg/mL (≈ 659 µM)

Structure (SMILES): CC(=O)/C(=C\c1ccc(C#N)cc1)n1c([N+](=O)[O-])cnc1C
- MIC [1]: 1720 µM (≈ 510 µg/mL)
- MIC [2]: 1720 µM (≈ 510 µg/mL)
- MIC [3]: 860 µM (≈ 255 µg/mL)
- MIC [4]: 860 µM (≈ 255 µg/mL)
- MIC [5]: 1720 µM (≈ 510 µg/mL)
- MIC [6]: 860 µM (≈ 255 µg/mL)
- MIC [7]: 430 µM (≈ 127 µg/mL)
- MIC [8]: 860 µM (≈ 255 µg/mL)
- MIC [9]: 256 µg/mL (≈ 864 µM)
- MIC [10]: 128 µg/mL (≈ 432 µM)
- MIC [11]: 256 µg/mL (≈ 864 µM)

Structure (SMILES): CC(=O)/C(=C\c1c[nH]c2ccccc12)n1c([N+](=O)[O-])cnc1C
- MIC [1]: 830 µM (≈ 258 µg/mL)
- MIC [2]: 1650 µM (≈ 512 µg/mL)
- MIC [3]: 830 µM (≈ 258 µg/mL)
- MIC [4]: 830 µM (≈ 258 µg/mL)
- MIC [5]: 1650 µM (≈ 512 µg/mL)
- MIC [6]: 420 µM (≈ 130 µg/mL)
- MIC [7]: 420 µM (≈ 130 µg/mL)
- MIC [8]: 420 µM (≈ 130 µg/mL)
- MIC [9]: 512 µg/mL (≈ 1650 µM)
- MIC [10]: 512 µg/mL (≈ 1650 µM)
- MIC [11]: 512 µg/mL (≈ 1650 µM)
- Ratio [12]: 4 - 16
